Test results reported in patent US20260365628A1, “SUBSTITUTED 3,4-DIHYDROQUINOLINONE INHIBITORS OF TSHR” (Septerna, Inc., priority 2022, published 2026).

target: T1, hTSHR (Homo sapiens, UniProt P16473); assay: hTSHR TR-FRET cAMP Assay (inhibition of M22-stimulated cAMP production); format: cell-based; details: Expi293F Inducible cells stably expressing hTSHR; cAMP HTRF; stimulated with EC80 of anti-TSHR antibody M22; 15 min compound preincubation, 30 min at 37° C.; read-out: Activity (IC50 bins)
T1 construct: expressed in transfected cells
T1 sequence (P16473 21-764): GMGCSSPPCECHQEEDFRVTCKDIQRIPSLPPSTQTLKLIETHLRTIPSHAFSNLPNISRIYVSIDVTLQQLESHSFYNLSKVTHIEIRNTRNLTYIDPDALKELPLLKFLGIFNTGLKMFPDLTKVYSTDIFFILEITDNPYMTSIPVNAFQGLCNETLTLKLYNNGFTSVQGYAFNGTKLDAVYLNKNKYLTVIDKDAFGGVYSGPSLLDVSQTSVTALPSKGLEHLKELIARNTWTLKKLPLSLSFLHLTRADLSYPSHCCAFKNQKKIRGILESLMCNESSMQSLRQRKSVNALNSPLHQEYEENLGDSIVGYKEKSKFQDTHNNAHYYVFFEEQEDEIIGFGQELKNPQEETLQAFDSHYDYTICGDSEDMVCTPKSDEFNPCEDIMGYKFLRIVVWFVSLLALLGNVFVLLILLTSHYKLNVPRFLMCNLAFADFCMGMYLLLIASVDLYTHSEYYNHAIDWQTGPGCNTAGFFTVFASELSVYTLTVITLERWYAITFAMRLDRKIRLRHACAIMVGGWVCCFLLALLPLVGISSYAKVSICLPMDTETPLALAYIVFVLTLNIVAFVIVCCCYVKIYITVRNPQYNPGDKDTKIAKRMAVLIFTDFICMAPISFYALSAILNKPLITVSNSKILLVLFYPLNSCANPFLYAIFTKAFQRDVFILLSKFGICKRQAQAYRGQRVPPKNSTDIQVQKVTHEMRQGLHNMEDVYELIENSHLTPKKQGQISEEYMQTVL
Method: Assays were performed using Expi293F Inducible cells (Invitrogen) stably expressing hTSHR via a pcZeo TetO DNA plasmid. Cell lines were maintained in suspension in Expi293 Expression Medium (ThermoFisher Scientific) supplemented with 10 µg/mL Blasticidin and 10 μg/mL Zeocin and incubated at 37° C., 8% CO2, with shaking. hTSHR cells were incubated overnight at 32° C., 5% C02, with shaking, but […] Doxycycline. Assay-ready aliquots were prepared by harvesting each cell type separately 24-hours post-induction. Cells were pelleted at 4° C., resuspended in Expi293 Expression media+10% DMSO, aliquoted, and kept frozen at −80° C. until ready for use.
For the assay, concentration-response curves of test and reference compounds were added to 384-well plates using an Echo 650 liquid handler (Beckman Coulter) and backfilled with DMSO to a final concentration of 0.5%. cAMP was measured using the cisbio cAMP Gs dynamic HTRF kit (PerkinElmer) according to manufacturer instructions. Aliquots of frozen hTSHR cells were quickly thawed and washed with phosphate-buffered saline (Sigma-Aldrich) to remove media and DMSO. The cells were resuspended in kit-supplied Stimulation Buffer at 0.8×10^6 cells/mL. 7.5 μL of the hTSHR cell dilution were added to each well of the assay plate and incubated with the compounds for 15 minutes in a 37 C, 0% CO2 incubator. 2.5 μL of Vehicle control or an EC80 concentration of recombinant human anti-TSHR antibody (M22, Creative Biolabs) was added to stimulate cAMP production. Cells were incubated with for 30 minutes at 37° C., 0% CO2. Following this incubation, the cells were lysed and accumulated cAMP was detected through the addition of kit-supplied lysis buffer containing d2-reagent and Eu-cryptate antibody. The HTRF signal was quantified using a BMG Clariostar plate reader optimized for HTRF assays. The HTRF ratio was determined by dividing the signal output at […] by that at 620 nm. Data were normalized to the signal produced by the EC80 concentration of either M22 or FSH (0% inhibition) and vehicle (no agonist, 100% inhibition).

Row | Compound | IC50
1 | CC(C)(C)NC(=O)Nc1ccc2c(c1)CCC(=O)N2Cc1ccccc1 [Example 1, 1-(1-benzyl-2-oxo-1,2,3,4-tetrahydroquinolin-6-yl)-3-(tert-butyl)urea] | < 100 nM
2 | CC(C)(C)NC(=O)Nc1ccc2c(c1)CCC(=O)N2Cc1ccccn1 [Example 2, 1-(tert-butyl)-3-(2-oxo-1-(pyridin-2-ylmethyl)-1,2,3,4-tetrahydroquinolin-6-yl)urea] | > 1000 nM
3 | CC(c1ccccc1)N1C(=O)CCc2cc(NC(=O)NC(C)(C)C)ccc21 (stereo not drawn) [Example 3, 1-(tert-butyl)-3-(2-oxo-1-(1-phenylethyl)-1,2,3,4-tetrahydroquinolin-6-yl)urea] | < 100 nM
4 | Cn1ccc(CN2C(=O)CCc3cc(NC(=O)NC(C)(C)C)ccc32)n1 [Example 4, 1-(tert-butyl)-3-(1-((1-methyl-1H-pyrazol-3-yl)methyl)-2-oxo-1,2,3,4-tetrahydroquinolin-6-yl)urea] | > 1000 nM
5 | CC1Cc2cc(NC(=O)NC(C)(C)C)ccc2N(Cc2ccccc2)C1=O (stereo not drawn) [Example 5, 1-(1-benzyl-3-methyl-2-oxo-1,2,3,4-tetrahydroquinolin-6-yl)-3-(tert-butyl)urea] | < 100 nM
6 | CC(C)(C)NC(=O)Nc1ccc2c(c1)CCC(=O)N2Cc1cccc(Cl)c1 [Example 6, 1-(tert-butyl)-3-(1-(3-chlorobenzyl)-2-oxo-1,2,3,4-tetrahydroquinolin-6-yl)urea] | < 100 nM
7 | CC(C)(C)NC(=O)Nc1ccc2c(c1)OCC(=O)N2Cc1ccccc1 [Example 7, 1-(4-benzyl-3-oxo-3,4-dihydro-2H-benzo[b][1,4]oxazin-7-yl)-3-(tert-butyl)urea] | < 100 nM
8 | CC(C)(C)NC(=O)Nc1ccc2c(c1)CCC(=O)N2Cc1ccccc1Cl [Example 8, 1-(tert-butyl)-3-(1-(2-chlorobenzyl)-2-oxo-1,2,3,4-tetrahydroquinolin-6-yl)urea] | 100 to 1000 nM
9 | CC(C)(C)OC(=O)Nc1ccc2c(c1)CCC(=O)N2Cc1ccccc1 [Example 9, tert-butyl (1-benzyl-2-oxo-1,2,3,4-tetrahydroquinolin-6-yl)carbamate] | < 100 nM
10 | CC(C)(C)NC(=O)Nc1ccc2c(c1)C(C)(C)CC(=O)N2Cc1ccccc1 [Example 10, 1-(1-benzyl-4,4-dimethyl-2-oxo-1,2,3,4-tetrahydroquinolin-6-yl)-3-(tert-butyl)urea] | > 1000 nM
11 | COCC1Cc2cc(NC(=O)NC(C)(C)C)ccc2N(Cc2ccccc2)C1=O (stereo not drawn) [Example 11, 1-(1-benzyl-3-(methoxymethyl)-2-oxo-1,2,3,4-tetrahydroquinolin-6-yl)-3-(tert-butyl)urea] | 100 to 1000 nM
12 | CN1Cc2cc(NC(=O)NC(C)(C)C)ccc2N(Cc2ccccc2)C1=O [Example 12, 1-(1-benzyl-3-methyl-2-oxo-1,2,3,4-tetrahydroquinazolin-6-yl)-3-(tert-butyl)urea] | 100 to 1000 nM
13 | C[C@@H](c1ccccc1)N1C(=O)CCc2cc(NC(=O)NC(C)(C)C)ccc21 [Example 13, (S)-1-(tert-butyl)-3-(2-oxo-1-(1-phenylethyl)-1,2,3,4-tetrahydroquinolin-6-yl)urea] | < 100 nM
14 | C[C@H](c1ccccc1)N1C(=O)CCc2cc(NC(=O)NC(C)(C)C)ccc21 [Example 14, (R)-1-(tert-butyl)-3-(2-oxo-1-(1-phenylethyl)-1,2,3,4-tetrahydroquinolin-6-yl)urea] | > 1000 nM
15 | CC1CC(=O)N(Cc2ccccc2)c2ccc(NC(=O)NC(C)(C)C)cc21 (stereo not drawn) [Example 15, 1-(1-benzyl-4-methyl-2-oxo-1,2,3,4-tetrahydroquinolin-6-yl)-3-(tert-butyl)urea] | > 1000 nM
16 | CC(C)(CCO)NC(=O)Nc1ccc2c(c1)CCC(=O)N2Cc1ccccc1 [Example 16, 1-(1-benzyl-2-oxo-1,2,3,4-tetrahydroquinolin-6-yl)-3-(4-hydroxy-2-methylbutan-2-yl)urea] | 100 to 1000 nM
17 | CC(C)(C)NC(=O)Nc1ccc2c(c1)CCC(=O)N2Cc1ccc(C#N)cc1 [Example 17, 1-(tert-butyl)-3-(1-(4-cyanobenzyl)-2-oxo-1,2,3,4-tetrahydroquinolin-6-yl)urea] | > 1000 nM
18 | CC(C)(C)NC(=O)Nc1ccc2c(c1)CCC(=O)N2Cc1cccc(C#N)c1 [Example 18, 1-(tert-butyl)-3-(1-(3-cyanobenzyl)-2-oxo-1,2,3,4-tetrahydroquinolin-6-yl)urea] | > 1000 nM
19 | CC(C)(C)NC(=O)Nc1ccc2c(c1)CCC(=O)N2Cc1ccccc1F [Example 19, 3-tert-butyl-1-{1-[(2-fluorophenyl)methyl]-2-oxo-3,4-dihydroquinolin-6-yl}urea] | < 100 nM
20 | CC(C)(C)NC(=O)Nc1ccc2c(c1)CCC(=O)N2Cc1ccccc1C#N [Example 20, 1-(tert-butyl)-3-(1-(2-cyanobenzyl)-2-oxo-1,2,3,4-tetrahydroquinolin-6-yl)urea] | < 100 nM
21 | Cc1cccc(CN2C(=O)CCc3cc(NC(=O)NC(C)(C)C)ccc32)c1 [Example 21, 1-(tert-butyl)-3-(1-(3-methylbenzyl)-2-oxo-1,2,3,4-tetrahydroquinolin-6-yl)urea] | < 100 nM

Now from value to compound:

Row | IC50 | Compound
22 | < 100 nM | CC1Oc2cc(NC(=O)NC(C)(C)C)ccc2N(Cc2cccc(Cl)c2)C1=O (single isomer, unassigned) [Example 43]
23 | > 1000 nM | C[C@H]1Oc2cc(NC(=O)NC(C)(C)C)ccc2N([C@@H](C)c2cncc(C(F)(F)F)n2)C1=O (single isomer, unassigned) [Example 306]
24 | 100 to 1000 nM | C[C@H]1Oc2cc(NC(=O)NC(C)(C)C)ccc2N([C@@H](C)c2ccnc(C(F)(F)F)n2)C1=O (single isomer, unassigned) [Example 310]
25 | > 1000 nM | C[C@H](c1ccnc(C(F)(F)F)n1)N1C(=O)[C@@H](C)Oc2cc(NC(=O)NC(C)(C)C)ccc21 (single isomer, unassigned) [Example 311]
26 | > 1000 nM | C[C@H]1Cc2cc(NC(=O)NC(C)(C)C)c(F)cc2N(Cc2ccccc2)C1=O (single isomer, unassigned) [Example 333]
27 | > 1000 nM | C[C@@H]1Cc2cc(NC(=O)NC(C)(C)C)c(F)cc2N(Cc2ccccc2)C1=O (single isomer, unassigned) [Example 334]
28 | < 100 nM | CC1Oc2cc(NC(=O)NC(C)(C)C)ccc2N(Cc2cccc(Cl)c2)C1=O (stereo in doubt) [Example 44, (S)-1-(tert-butyl)-3-(4-(3-chlorobenzyl)-2-methyl-3-oxo-3,4-dihydro-2H-benzo[b][1,4]oxazin-7-yl)urea]
29 | 100 to 1000 nM | C[C@@H](c1cccc(C(O)C(F)(F)F)n1)n1c(=O)cnc2cc(NC(=O)NC(C)(C)C)ccc21 (stereo in doubt) [Example 154, 1-(tert-butyl)-3-(2-oxo-1-((S)-1-(6-((R)-2,2,2-trifluoro-1-hydroxyethyl)pyridin-2-yl)ethyl)-1,2-dihydroquinoxalin-6-yl)urea]
30 | < 100 nM | C[C@@H](c1cccc(OC(F)(F)F)c1)n1c(=O)cnc2cc(NC(=O)C3CCC3(C)C)ccc21 (stereo in doubt) [Example 219, (S)-2,2-dimethyl-N-(2-oxo-1-((S)-1-(3-(trifluoromethoxy)phenyl)ethyl)-1,2-dihydroquinoxalin-6-yl) cyclobutane-1-carboxamide]
31 | 100 to 1000 nM | CC(c1cccc(OC(F)(F)F)c1)n1c(=O)cnc2cc(NC(=O)[C@H]3CCC3(C)C)ccc21 (stereo in doubt) [Example 220, (S)-2,2-dimethyl-N-(2-oxo-1-((R)-1-(3-(trifluoromethoxy)phenyl)ethyl)-1,2-dihydroquinoxalin-6-yl) cyclobutane-1-carboxamide]
32 | 100 to 1000 nM | CC1Oc2nc(NC(=O)NC(C)(C)C)c(C(F)(F)F)cc2N(Cc2ccccc2)C1=O (stereo in doubt) [Example 378, (R)-1-(1-benzyl-3-methyl-2-oxo-7-(trifluoromethyl)-2,3-dihydro-1H-pyrido[2,3-b][1,4]oxazin-6-yl)-3-(tert-butyl)urea]
33 | < 100 nM | COc1cccc(CN2C(=O)CCc3cc(NC(=O)NC(C)(C)C)ccc32)c1 [Example 22, 1-(tert-butyl)-3-(1-(3-methoxybenzyl)-2-oxo-1,2,3,4-tetrahydroquinolin-6-yl)urea]
34 | < 100 nM | CC(C)(C)NC(=O)Nc1ccc2c(c1)CCC(=O)N2Cc1cccc(C(F)(F)F)c1 [Example 23, 1-(tert-butyl)-3-(2-oxo-1-(3-(trifluoromethyl)benzyl)-1,2,3,4-tetrahydroquinolin-6-yl)urea]
35 | < 100 nM | CC(C)(C)NC(=O)Nc1ccc2c(c1)CCC(=O)N2Cc1cc(Cl)ccc1Cl [Example 24, 3-tert-butyl-1-{1-[(2,5-dichlorophenyl)methyl]-2-oxo-3,4-dihydroquinolin-6-yl}urea]
36 | < 100 nM | CC(C)(C)NC(=O)Nc1ccc2c(c1)CCC(=O)N2Cc1cc(Cl)cc(Cl)c1 [Example 25, 1-(tert-butyl)-3-(1-(3,5-dichlorobenzyl)-2-oxo-1,2,3,4-tetrahydroquinolin-6-yl) urea]
